Source: patent publication US20240148821A1, “PHARMACEUTICAL USE OF CYCLIC PEPTIDE COMPOUND” (CHUGAI SEIYAKU KABUSHIKI KAISHA, priority 2021, published 2024)
Numbered stars: 1 amine (or outer) side, 2 acyl side, 3 side chain; on linkers, the order of the positions; unused ones are H or OH. Bridge positions count the residues as written; N and C are the ends. Square brackets hold non-standard residues; d marks the D form. Peptide text beside a SMILES is read from it. * marks the point of attachment. hPhe(3,5-F2-4-CF3) = N[C@@H](CCc1cc(F)c(C(F)(F)F)c(F)c1)C(=O)O; hPhe(3-Cl-4-CF3) = N[C@@H](CCc1ccc(C(F)(F)F)c(Cl)c1)C(=O)O; NMePhe(4-CF3) = CN[C@@H](Cc1ccc(C(F)(F)F)cc1)C(=O)O; Piperazinyl(4-(3-oxetanyl)) = C1OCC1N1CCN(*)CC1; X105 = C[C@@](Cc1cccc(I)c1)(N[*:1])C(=O)[*:2]; NMeAbu(4,4,4-F3) = CN[C@@H](CC(F)(F)F)C(=O)O; NMePhe(4-Cl) = CN[C@@H](Cc1ccc(Cl)cc1)C(=O)O; X59 = Cc1ccc(Br)cc1C[C@H](N[*:1])C(=O)[*:2]; Phe(2,6-F2) = N[C@@H](Cc1c(F)cccc1F)C(=O)O; Pro(4,4-F2) = O=C(O)[C@@H]1CC(F)(F)CN1; NMeY = CN[C@@H](Cc1ccc(O)cc1)C(=O)O; NMeCha = CN[C@@H](CC1CCCCC1)C(=O)O; NMeChg = CN[C@H](C(=O)O)C1CCCCC1; NMeI = CC[C@H](C)[C@H](NC)C(=O)O; NMeD = CN[C@@H](CC(=O)O)C(=O)O; NMeL = CN[C@@H](CC(C)C)C(=O)O; d(β3hP) = O=C(O)C[C@H]1CCCN1; NMeAbu = CC[C@H](NC)C(=O)O; Morpholide = C1CN(*)CCO1; NMeA = CN[C@@H](C)C(=O)O; NMeAib = CNC(C)(C)C(=O)O; Nle = CCCC[C@H](N)C(=O)O; Piperidide = C1CCN(*)CC1; Pyrrolidide = C1CCN(*)C1; Ac5c = NC1(C(=O)O)CCCC1; Aze = O=C(O)[C@@H]1CCN1; Ac4c = NC1(C(=O)O)CCC1; Sar = CNCC(=O)O

test system: Human pancreatic cancer cell line AsPC-1 (G12D mutation Kras); assay: AsPC-1 cell growth inhibition (AsPC-1 CGI); format: cell-based; details: read-out: AsPC-1 cell growth inhibition, 50% growth inhibitory concentration (IC50 value); 96 hours, CellTiter-Glo, values classified in ranges
Procedure: Test compounds were serially dilated with dimethyl sulfoxide, and 200 nL was then dispensed to a U-bottom 96-well plate using Labcyte Echo. […] The cell suspension was dispensed to a. plate containing a test compound at 100 μL per well and incubated at 37° C. in a 5% carbon dioxide gas incubator. 96 hours later, 80 μL of CellTiter-Glo (Promega) was added to each well and fluorescence was measured.

Row | SMILES | IC50 [nM]
1 | CC[C@H](C)[C@@H]1NC(=O)[C@H](CC(C)C)N(C)C(=O)C[C@H]2CCCN2C(=O)[C@H](C2CCCCC2)N(C)C(=O)C2(CCCC2)NC(=O)[C@@H]2CCCN2C(=O)[C@H](CCc2ccc(C(F)(F)F)c(Cl)c2)NC(=O)CN(C)C(=O)[C@H](CC2CCCCC2)N(C)C(=O)CN(C)C(=O)CN(C)C1=O [Compound 1185] (cyclo([Ac5c][NMeChg][d(β3hP)][NMeL]I[Sar][Sar][NMeCha][Sar][hPhe(3-Cl-4-CF3)]P)) | > 500
2 | CC[C@H](C)[C@@H]1NC(=O)[C@H](CC(C)C)N(C)C(=O)C[C@@H](C(=O)N2CCCCC2)N(C)C(=O)[C@H](C2CCCCC2)N(C)C(=O)C2(CCCC2)NC(=O)[C@@H]2CCCN2C(=O)[C@H](CCc2ccc(C(F)(F)F)c(Cl)c2)NC(=O)CN(C)C(=O)[C@H](CC2CCCCC2)N(C)C(=O)[C@H](C)N(C)C(=O)CN(C)C1=O [Compound 1186] ([NMeL]I[Sar][NMeA][NMeCha][Sar][hPhe(3-Cl-4-CF3)]P[Ac5c][NMeChg][NMeD]-Piperidide; lactam N-11) | > 500
3 | CCCC[C@@H]1NC(=O)[C@H](Cc2c(F)cccc2F)NC(=O)CN(C)C(=O)[C@H](Cc2ccc(OC)cc2)N(C)C(=O)[C@@H]2CCN2C(=O)[C@H](C)N(C)C(=O)[C@H]([C@@H](C)CC)NC(=O)[C@H](CC)N(C)C(=O)C[C@@H](C(=O)N2CCCCC2)N(C)C(=O)[C@H](CC(C)C)NC(=O)C(C)(C)N(C)C1=O [Compound 1187] ([NMeAbu]I[NMeA][Aze][NMeY](Me)[Sar][Phe(2,6-F2)][Nle][NMeAib]L[NMeD]-Piperidide; lactam N-11) | > 500
4 | CC[C@H](C)[C@@H]1NC(=O)[C@H](CC(C)C)N(C)C(=O)C[C@@H](C(=O)N2CCN(C3COC3)CC2)NC(=O)[C@H]([C@@H](C)CC)N(C)C(=O)C2(CCCC2)NC(=O)[C@@H]2CCCN2C(=O)[C@H](CCc2ccc(C(F)(F)F)c(Cl)c2)NC(=O)CN(C)C(=O)[C@H](CC2CCCCC2)N(C)C(=O)CN(C)C(=O)CN(C)C1=O [Compound 1191] ([NMeL]I[Sar][Sar][NMeCha][Sar][hPhe(3-Cl-4-CF3)]P[Ac5c][NMeI]D-{Piperazinyl(4-(3-oxetanyl))}; lactam N-11) | > 500
5 | CC[C@H](C)[C@@H]1NC(=O)[C@H](CC(C)C)N(C)C(=O)C[C@@H](C(=O)N2CCCC2)N(C)C(=O)[C@H](C2CCCCC2)N(C)C(=O)C2(CCC2)NC(=O)[C@@H]2CC(F)(F)CN2C(=O)[C@H](CCc2cc(F)c(C(F)(F)F)c(F)c2)NC(=O)CN(C)C(=O)[C@H](CC2CCCCC2)N(C)C(=O)CN(C)C(=O)CN(C)C1=O [Compound 1192] ([NMeL]I[Sar][Sar][NMeCha][Sar][hPhe(3,5-F2-4-CF3)][Pro(4,4-F2)][Ac4c][NMeChg][NMeD]-Pyrrolidide; lactam N-11) | ≤ 20
6 | CC[C@H](C)[C@@H]1NC(=O)[C@H](CC(C)C)N(C)C(=O)C[C@@H](C(=O)N2CCOCC2)N(C)C(=O)[C@H](C2CCCCC2)N(C)C(=O)C2(CCCC2)NC(=O)[C@@H]2CC(F)(F)CN2C(=O)[C@H](CCc2ccc(C(F)(F)F)c(Cl)c2)NC(=O)CN(C)C(=O)[C@H](CC2CCCCC2)N(C)C(=O)CN(C)C(=O)CN(C)C1=O [Compound 1194] ([NMeL]I[Sar][Sar][NMeCha][Sar][hPhe(3-Cl-4-CF3)][Pro(4,4-F2)][Ac5c][NMeChg][NMeD]-Morpholide; lactam N-11) | ≤ 20
7 | CCCC[C@@H]1NC(=O)[C@H](Cc2cc(Br)ccc2C)NC(=O)CN(C)C(=O)[C@H](Cc2ccc(OC)cc2)N(C)C(=O)[C@@H]2CCN2C(=O)[C@H](C)N(C)C(=O)[C@H]([C@@H](C)CC)NC(=O)[C@H](CC)N(C)C(=O)C[C@@H](C(=O)N2CCCCC2)N(C)C(=O)[C@H](CC(C)C)NC(=O)C(C)(C)N(C)C1=O [Compound 1195] ([NMeAbu]I[NMeA][Aze][NMeY](Me)[Sar][X59][Nle][NMeAib]L[NMeD]-Piperidide; lactam N-11) | > 500
8 | CC[C@H](C)[C@@H]1NC(=O)[C@H](CC(F)(F)F)N(C)C(=O)C[C@@H](C(=O)N2CCCC2)N(C)C(=O)[C@H](C2CCCCC2)N(C)C(=O)C2(CCCC2)NC(=O)[C@@H]2CC(F)(F)CN2C(=O)[C@H](CCc2ccc(C(F)(F)F)c(Cl)c2)NC(=O)CN(C)C(=O)[C@H](Cc2ccc(C(F)(F)F)cc2)N(C)C(=O)CN(C)C(=O)CN(C)C1=O [Compound 1196] ([NMeAbu(4,4,4-F3)]I[Sar][Sar][NMePhe(4-CF3)][Sar][hPhe(3-Cl-4-CF3)][Pro(4,4-F2)][Ac5c][NMeChg][NMeD]-Pyrrolidide; lactam N-11) | ≤ 20
9 | CCCC[C@@H]1NC(=O)[C@](C)(Cc2cccc(I)c2)NC(=O)CN(C)C(=O)[C@H](Cc2ccc(Cl)cc2)N(C)C(=O)CN(C)C(=O)CN(C)C(=O)[C@H]([C@@H](C)CC)NC(=O)[C@H](CC(C)C)N(C)C(=O)C[C@@H](C(=O)N2CCCCC2)N(C)C(=O)[C@H](CC(C)C)NC(=O)C(C)(C)N(C)C1=O [Compound 1202] ([NMeL]I[Sar][Sar][NMePhe(4-Cl)][Sar][X105][Nle][NMeAib]L[NMeD]-Piperidide; lactam N-11) | > 500
